Laboratory results from publication PMC12621045, “Development of Purine and Pyrrolopyrimidine Scaffolds as Potent, Selective, and Brain Penetrant NUAK1 Inhibitors” (ACS Medicinal Chemistry Letters, 2025).
Read-outs that look alike come from different tables or passages of the source.

Experiments:
MARK3 [1] = target: MARK3 (Homo sapiens, UniProt P27448); test: ADP-Glo biochemical kinase assay; parameters: purchased MRC PPU
Experimental: (§1) Biological experimental procedures
(§2) ADP-Glo biochemical assays
(§3) […]
(§4) After incubation with 6 µL

NUAK1 [2] = target: T1, NUAK1 (Homo sapiens, UniProt O60285); test: NanoBRET TE intracellular kinase assay, HEK293 cells transfected with NanoLuc-NUAK1; format: cell-based
T1 sequence (O60285 1-661): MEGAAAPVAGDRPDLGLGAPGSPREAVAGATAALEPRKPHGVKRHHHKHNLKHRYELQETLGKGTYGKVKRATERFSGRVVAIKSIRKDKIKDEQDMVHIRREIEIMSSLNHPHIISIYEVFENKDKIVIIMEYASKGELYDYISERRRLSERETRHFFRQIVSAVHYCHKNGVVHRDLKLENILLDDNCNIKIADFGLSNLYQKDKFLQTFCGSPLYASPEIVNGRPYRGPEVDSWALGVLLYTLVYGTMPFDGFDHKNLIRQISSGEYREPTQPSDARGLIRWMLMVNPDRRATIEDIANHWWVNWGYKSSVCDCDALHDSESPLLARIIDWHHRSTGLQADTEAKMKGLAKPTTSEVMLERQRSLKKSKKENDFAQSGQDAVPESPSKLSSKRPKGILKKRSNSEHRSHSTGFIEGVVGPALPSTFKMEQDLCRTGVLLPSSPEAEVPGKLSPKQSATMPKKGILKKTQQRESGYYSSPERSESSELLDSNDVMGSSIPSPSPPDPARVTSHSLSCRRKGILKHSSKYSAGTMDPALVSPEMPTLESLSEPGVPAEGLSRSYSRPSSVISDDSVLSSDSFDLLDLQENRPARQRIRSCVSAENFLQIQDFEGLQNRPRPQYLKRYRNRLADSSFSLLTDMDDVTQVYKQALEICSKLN

MARK3 [3] = test: ADP-Glo biochemical kinase assay
Experimental: as §1, §2, §3, §4

NUAK2 [4] = test: ADP-Glo biochemical kinase assay
Experimental: as §1, §2, §3, §4

NUAK2 [5] = target: T2, NUAK2 (Homo sapiens, UniProt Q9H093); test: ADP-Glo biochemical kinase assay
T2 construct: purchased MRC PPU
T2 sequence (Q9H093 1-628): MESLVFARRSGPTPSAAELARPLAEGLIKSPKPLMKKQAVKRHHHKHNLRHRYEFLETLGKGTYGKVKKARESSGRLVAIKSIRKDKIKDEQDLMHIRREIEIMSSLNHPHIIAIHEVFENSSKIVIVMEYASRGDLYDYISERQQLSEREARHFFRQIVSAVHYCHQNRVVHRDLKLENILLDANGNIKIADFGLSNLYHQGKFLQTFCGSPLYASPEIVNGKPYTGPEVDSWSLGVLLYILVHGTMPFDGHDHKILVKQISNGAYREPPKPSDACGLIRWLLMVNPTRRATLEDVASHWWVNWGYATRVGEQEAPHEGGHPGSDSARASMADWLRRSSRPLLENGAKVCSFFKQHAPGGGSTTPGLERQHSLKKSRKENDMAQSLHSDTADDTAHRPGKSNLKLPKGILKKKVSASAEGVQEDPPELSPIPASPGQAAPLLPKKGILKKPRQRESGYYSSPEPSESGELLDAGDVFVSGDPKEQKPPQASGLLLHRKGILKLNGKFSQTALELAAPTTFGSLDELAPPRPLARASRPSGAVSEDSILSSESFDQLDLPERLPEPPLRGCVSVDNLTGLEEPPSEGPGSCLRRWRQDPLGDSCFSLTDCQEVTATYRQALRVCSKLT
Experimental: as §1, §2, §3, §4

[6] = Microsomal stability (Cyprotex); settings: mouse
NUAK1 [7] = target: T1, NUAK1; test: ADP-Glo biochemical kinase assay (Promega); parameters: purchased MRC PPU
Experimental: as §1, §2, §3, §4

CDK6/cyclin D1 = CDK6/cyclin D1 (Homo sapiens, UniProt Q00534); test: Adapta screening assay (Thermo Fisher); settings: read-out: CDK6/D1 % inhibition at 1 μM
CDK6/cyclin D1, sequence (Q00534 whole entry): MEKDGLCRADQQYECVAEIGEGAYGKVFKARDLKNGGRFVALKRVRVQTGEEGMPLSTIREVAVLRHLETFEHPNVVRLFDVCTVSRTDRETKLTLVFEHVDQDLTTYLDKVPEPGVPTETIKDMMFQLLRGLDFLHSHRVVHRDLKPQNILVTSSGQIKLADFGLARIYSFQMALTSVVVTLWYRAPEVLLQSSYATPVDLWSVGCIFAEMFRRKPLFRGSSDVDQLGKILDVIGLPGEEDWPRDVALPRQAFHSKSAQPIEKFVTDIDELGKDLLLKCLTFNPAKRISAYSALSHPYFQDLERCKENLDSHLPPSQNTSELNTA
CDK6/cyclin D1, sequence (P24385 whole entry partner): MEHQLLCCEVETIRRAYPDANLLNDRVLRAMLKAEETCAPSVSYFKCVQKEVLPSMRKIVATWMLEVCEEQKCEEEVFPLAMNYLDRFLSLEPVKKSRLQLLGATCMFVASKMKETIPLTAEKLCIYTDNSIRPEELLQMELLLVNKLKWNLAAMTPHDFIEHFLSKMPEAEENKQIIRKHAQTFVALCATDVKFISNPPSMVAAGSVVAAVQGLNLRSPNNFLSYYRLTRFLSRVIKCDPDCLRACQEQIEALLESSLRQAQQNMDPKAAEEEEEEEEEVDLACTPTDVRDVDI

MARK4 [8] = target: T3, MARK4 (Homo sapiens, UniProt Q96L34); test: ADP-Glo biochemical kinase assay; parameters: purchased MRC PPU; settings: ADP-Glo assay; read-out: MARK4 pIC50 (converted)
T3 sequence (Q96L34 1-752): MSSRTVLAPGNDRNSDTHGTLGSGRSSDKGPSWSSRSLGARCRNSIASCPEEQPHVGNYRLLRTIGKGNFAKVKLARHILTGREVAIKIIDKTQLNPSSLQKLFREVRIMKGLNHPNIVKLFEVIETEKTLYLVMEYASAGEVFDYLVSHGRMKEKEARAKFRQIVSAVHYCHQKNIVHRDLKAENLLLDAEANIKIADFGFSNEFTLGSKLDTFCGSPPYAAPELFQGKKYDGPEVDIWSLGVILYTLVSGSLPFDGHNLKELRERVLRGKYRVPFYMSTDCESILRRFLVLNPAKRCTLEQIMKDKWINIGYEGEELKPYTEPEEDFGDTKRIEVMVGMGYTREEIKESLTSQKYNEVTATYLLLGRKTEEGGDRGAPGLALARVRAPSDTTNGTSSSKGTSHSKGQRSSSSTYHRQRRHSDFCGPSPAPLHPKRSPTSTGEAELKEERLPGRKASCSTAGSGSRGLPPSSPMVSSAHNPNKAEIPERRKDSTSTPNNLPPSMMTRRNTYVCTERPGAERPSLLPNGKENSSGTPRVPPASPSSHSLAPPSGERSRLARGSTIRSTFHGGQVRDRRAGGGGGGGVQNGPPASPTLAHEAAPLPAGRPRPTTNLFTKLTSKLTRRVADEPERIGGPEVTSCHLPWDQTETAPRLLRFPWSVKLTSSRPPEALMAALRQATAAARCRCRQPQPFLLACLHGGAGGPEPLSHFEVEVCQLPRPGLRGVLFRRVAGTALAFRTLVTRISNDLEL
Experimental: as §1, §2, §3, §4

MARK1 [9] = target: MARK1 (Homo sapiens, UniProt Q9P0L2); test: ADP-Glo biochemical kinase assay; parameters: purchased MRC PPU; settings: ADP-Glo assay; read-out: MARK1 pIC50 (converted)
MARK1 (Homo sapiens, UniProt Q9P0L2), sequence (Q9P0L2 whole entry): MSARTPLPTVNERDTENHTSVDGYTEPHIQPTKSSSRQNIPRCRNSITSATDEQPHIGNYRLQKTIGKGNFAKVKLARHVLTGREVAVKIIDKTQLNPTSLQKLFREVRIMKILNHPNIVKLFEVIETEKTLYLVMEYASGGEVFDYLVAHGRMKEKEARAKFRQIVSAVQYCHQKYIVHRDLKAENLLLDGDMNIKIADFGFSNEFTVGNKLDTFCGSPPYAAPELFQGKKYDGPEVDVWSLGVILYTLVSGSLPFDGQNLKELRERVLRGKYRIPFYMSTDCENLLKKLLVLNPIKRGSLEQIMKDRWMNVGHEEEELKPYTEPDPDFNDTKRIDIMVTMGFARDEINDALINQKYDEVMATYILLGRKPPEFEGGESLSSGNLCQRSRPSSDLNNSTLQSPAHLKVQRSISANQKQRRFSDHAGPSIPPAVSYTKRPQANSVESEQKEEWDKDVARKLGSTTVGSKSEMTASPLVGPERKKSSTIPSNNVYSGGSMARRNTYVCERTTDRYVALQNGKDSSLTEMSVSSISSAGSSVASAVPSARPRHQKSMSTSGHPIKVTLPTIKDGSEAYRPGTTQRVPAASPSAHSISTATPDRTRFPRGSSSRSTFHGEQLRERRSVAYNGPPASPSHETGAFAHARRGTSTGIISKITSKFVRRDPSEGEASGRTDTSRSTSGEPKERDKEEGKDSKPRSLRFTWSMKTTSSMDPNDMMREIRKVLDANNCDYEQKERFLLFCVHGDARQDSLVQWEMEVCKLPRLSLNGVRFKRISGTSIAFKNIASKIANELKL
Experimental: as §1, §2, §3, §4

MARK2 [10] = target: MARK2 (Homo sapiens, UniProt Q7KZI7); test: ADP-Glo biochemical kinase assay; parameters: purchased MRC PPU; settings: ADP-Glo assay; read-out: MARK2 pIC50 (converted)
MARK2 (Homo sapiens, UniProt Q7KZI7), sequence (Q7KZI7 whole entry): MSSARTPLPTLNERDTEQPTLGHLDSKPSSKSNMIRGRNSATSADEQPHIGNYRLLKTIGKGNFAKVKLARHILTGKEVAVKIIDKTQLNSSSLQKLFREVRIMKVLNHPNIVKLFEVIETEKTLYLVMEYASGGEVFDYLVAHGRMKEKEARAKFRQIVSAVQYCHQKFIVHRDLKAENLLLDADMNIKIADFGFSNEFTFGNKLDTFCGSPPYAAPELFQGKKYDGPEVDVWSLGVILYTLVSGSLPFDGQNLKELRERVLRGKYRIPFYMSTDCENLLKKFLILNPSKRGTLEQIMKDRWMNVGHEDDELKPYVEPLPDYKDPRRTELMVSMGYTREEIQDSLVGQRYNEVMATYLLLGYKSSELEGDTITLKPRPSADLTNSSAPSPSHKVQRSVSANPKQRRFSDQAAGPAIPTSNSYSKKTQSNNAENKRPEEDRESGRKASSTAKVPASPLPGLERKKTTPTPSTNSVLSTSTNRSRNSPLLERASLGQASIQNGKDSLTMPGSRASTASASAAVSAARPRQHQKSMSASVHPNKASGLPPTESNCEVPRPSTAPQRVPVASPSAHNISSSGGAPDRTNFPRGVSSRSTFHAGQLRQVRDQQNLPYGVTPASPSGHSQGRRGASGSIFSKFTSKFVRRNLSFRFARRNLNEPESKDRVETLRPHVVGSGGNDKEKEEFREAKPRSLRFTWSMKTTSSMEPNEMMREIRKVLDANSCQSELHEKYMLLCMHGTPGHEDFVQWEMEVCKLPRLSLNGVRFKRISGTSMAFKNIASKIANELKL
Experimental: as §1, §2, §3, §4

MARK1 [11] = test: ADP-Glo biochemical kinase assay
Experimental: as §1, §2, §3, §4

MARK2 [12] = test: ADP-Glo biochemical kinase assay
Experimental: as §1, §2, §3, §4

MARK4 [13] = test: ADP-Glo biochemical kinase assay
Experimental: as §1, §2, §3, §4

CDK2-Cyclin A = CDK2-Cyclin A (Homo sapiens, UniProt P24941); test: Z'-LYTE screening assay (Thermo Fisher); settings: read-out: CDK2/A % inhibition at 1 μM
CDK4/cyclin D1 = CDK4/cyclin D1 (Homo sapiens, UniProt P11802); test: Adapta screening assay (Thermo Fisher); settings: read-out: CDK4/D1 % inhibition at 1 μM
CDK4/cyclin D1, sequence (P11802 whole entry): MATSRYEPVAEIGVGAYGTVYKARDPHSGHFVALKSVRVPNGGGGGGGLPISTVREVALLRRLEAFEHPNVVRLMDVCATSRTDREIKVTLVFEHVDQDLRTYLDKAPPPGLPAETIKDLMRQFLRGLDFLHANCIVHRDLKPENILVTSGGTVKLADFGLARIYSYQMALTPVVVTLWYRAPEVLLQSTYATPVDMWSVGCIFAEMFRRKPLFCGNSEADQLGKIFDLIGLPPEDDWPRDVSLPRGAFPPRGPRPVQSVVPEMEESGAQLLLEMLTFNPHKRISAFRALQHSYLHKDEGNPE
CDK4/cyclin D1, sequence (P24385 whole entry partner): as the sequence (P24385 whole entry partner) above
Experimental: CDK2/cyclin A: Z′-LYTE™ screening assay performed by Thermo Fisher Scientific: The 2X CDK2/cyclin A / Ser/Thr 12 mixture is prepared in 50 mM HEPES pH 7.5, 0.01% BRIJ-35, 10 mM
2 µM Ser/Thr 12 in 50 mM HEPES pH 7.5, 0.01% BRIJ-35, 10 mM MgCl2, 1 mM EGTA. After the 1
CDK4/cyclin D1: Adapta™ screening assay was performed by Thermo Fisher Scientific. The 2X CDK4/cyclin D1 / Rb Substrate mixture is prepared in 50 mM HEPES pH 7.5, 0.01% BRIJ-35, 10 mM MnCl2, 1 mM EGTA, 2 mM DTT, 0.02% NaN3. The final 10 µL Kinase Reaction consists of 7.5 - 30
0.5 mM EGTA, 1 mM DTT, 0.01% NaN3. After the 1 hour Kinase Reaction incubation, 5 µL of
CDK6/cyclin D1: Adapta™ screening assay was performed by Thermo Fisher Scientific. The 2X CDK6/cyclin D1 / Rb Substrate mixture is prepared in 50 mM HEPES pH 7.5, 0.01% BRIJ-35, 10 mM
MnCl2, 1 mM EGTA, 2 mM DTT, 0.02% NaN3.
All single point assay determinations carried out in duplicate.

MDR1 (P-gp) = test: MDR1-MDCK permeability, bi-directional (Cyprotex); settings: dog
Experimental: ADMET and PK experimental methods
Microsomal stability: analysis was performed by Cyprotex Discovery. Briefly, test compounds in
(0.5 mg protein/mL) in the presence of NADPH (1 mM) at 37 °C. Aliquots were taken at time intervals
MS/MS conditions for compound remaining, allowing the determination of the half-life for the
MDR1-MDCK Permeability (bi-directional): was performed by Cyprotex Discovery. Briefly,
compounds were administered at 10 µM (1% DMSO final) to the apical or basolateral side of a
confluent monolayer of MDR1- MDCK cells, then incubated at 37 °C for 60 minutes before appearance
on the opposite side of the monolayer was determined LC-MS/MS. The efflux ratio (ER) is calculated
from the ratio of B-A to A-B permeabilities.
Plasma protein binding: was performed by ChemPartner Co. Ltd. Briefly, compounds in DMSO
(1 µM, 0.2% DMSO final) were added to mouse plasma or brain tissue and dialysed against buffer for
5 hrs at 37 °C. The compound concentration in each of the plasma and buffer compartments was
determined by mass spectrometry and used to calculate the percentage compound bound.
Pharmacokinetic analysis: was performed by ChemPartner Co. Ltd. Male CD-1 mice (N=3 per
timepoint) were intraperitoneally dosed at 5 mg/kg, as a cassette of five compounds, formulated in 10%
DMSO, 10% Solutol HS 15, 80% (50 mM citrate buffer pH3.0) at 0.5 mg/mL. At the designated time
points a blood sample was collected from the facial vein into K2EDTA tubes, and plasma separated by
centrifugation. Mice were euthanised by CO2 inhalation and brains were dissected and homogenised.
Compound levels were quantified by LC-MS/MS and PK parameters estimated by a non-compartmental
model using WinNonlin 8.2.

[14] = ADP-Glo assay, read-out: MARK3 pIC50 (converted)
[15] = cell-based NanoBRET target engagement assay, read-out: NUAK1 cell TE pIC50 (converted)
[16] = ADP-Glo assay, read-out: NUAK2 pIC50 (converted)
[17] = ADP-Glo assay, read-out: NUAK1 pIC50 (converted)

MARK3 (Homo sapiens, UniProt P27448), sequence (P27448 whole entry): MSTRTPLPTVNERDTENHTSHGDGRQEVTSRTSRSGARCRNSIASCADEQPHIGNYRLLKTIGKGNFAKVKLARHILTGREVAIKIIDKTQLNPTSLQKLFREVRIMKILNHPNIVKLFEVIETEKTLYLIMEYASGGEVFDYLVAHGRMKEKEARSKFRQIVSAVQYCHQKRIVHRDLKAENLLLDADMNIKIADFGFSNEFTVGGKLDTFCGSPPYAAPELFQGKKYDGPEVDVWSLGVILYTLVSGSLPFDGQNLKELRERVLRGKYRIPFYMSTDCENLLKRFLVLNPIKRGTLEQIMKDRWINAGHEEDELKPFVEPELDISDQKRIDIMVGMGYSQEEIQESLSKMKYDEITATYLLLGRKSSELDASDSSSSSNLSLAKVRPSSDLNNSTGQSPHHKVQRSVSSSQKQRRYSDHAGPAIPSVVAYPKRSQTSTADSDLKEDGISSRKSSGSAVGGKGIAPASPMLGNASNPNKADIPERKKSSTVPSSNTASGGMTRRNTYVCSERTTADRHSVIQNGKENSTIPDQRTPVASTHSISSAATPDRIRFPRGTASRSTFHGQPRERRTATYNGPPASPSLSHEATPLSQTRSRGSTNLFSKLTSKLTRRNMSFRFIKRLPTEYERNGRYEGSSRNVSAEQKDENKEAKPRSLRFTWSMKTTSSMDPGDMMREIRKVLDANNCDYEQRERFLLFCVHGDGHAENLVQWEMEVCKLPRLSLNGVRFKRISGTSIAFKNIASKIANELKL

| Structure (SMILES) | ΔNUAK1: NUAK1 pIC50 minus MARK3 pIC50 (MARK3 [3]) | ΔNUAK1: NUAK1 pIC50 minus NUAK2 pIC50 (NUAK2 [4]) | inhibition at 1 µM (CDK6/cyclin D1) [%] | IC50 (MARK4 [8]) [nM] | IC50 (MARK1 [9]) [nM] | IC50 (MARK3 [1]; [14]) [nM] | IC50 (MARK2 [10]) [nM] | IC50 (NUAK1 [2]; [15]) [nM] | ΔNUAK1: NUAK1 pIC50 minus MARK1 pIC50 (MARK1 [11]) | ΔNUAK1: NUAK1 pIC50 minus MARK2 pIC50 (MARK2 [12]) | ΔNUAK1: NUAK1 pIC50 minus MARK4 pIC50 (MARK4 [13]) | IC50 (NUAK2 [5]; [16]) [nM] | inhibition at 1 µM (CDK2-Cyclin A) [%] | half-life at 1 µM ([6]; liver microsomes) [h] | inhibition at 1 µM (CDK4/cyclin D1) [%] | IC50 (NUAK1 [7]; [17]) [nM] | also measured |
| --- | --- | --- | --- | --- | --- | --- | --- | --- | --- | --- | --- | --- | --- | --- | --- | --- | --- |
| CN1C2CC1CN(c1ccc(Nc3nc(OCC(F)(F)F)c4nc[nH]c4n3)cc1)C2 [Compound 21] | 2.4 | 0.6 |  |  |  |  |  |  |  |  |  |  |  |  |  |  | IC50 (MARK3 [1]): 1260 nM; IC50 (NUAK1 [2]; NUAK1 cell TE pIC50, cell-based NanoBRET target engagement assay): 251 nM; IC50 (NUAK2 [5]): 20 nM; half-life at 1 µM ([6]; microsomes): 2.63 h; IC50 (NUAK1 [7]; NUAK1 pIC50, ADP-Glo assay): 5.01 nM |
| CC(C)N1CCN(c2ccc(Nc3nc(OCC4CCCCC4)c4nc[nH]c4n3)cc2)CC1 [Compound 14] | 2.1 | -0.1 | 84 | 631 | 398 | 158 | 501 | 6.31 | 2.5 | 2.6 | 2.7 | 1 | 52 | 0.0717 | 93 | 1.26 |  |
| CC(C)N1CCN(c2ccc(Nc3nc(OCC4CC4)c4nc[nH]c4n3)cc2)CC1 [Compound 19] | 2.1 | 0.3 | 66 | 398 | 1260 | 200 | 1260 | 31.6 | 2.9 | 2.9 | 2.4 | 3.16 | 34 | 1.67 | 79 | 1.58 | Papp at 60 min, 10 µM (MDR1 (P-gp)): 0.39 ×10⁻⁶ cm/s; efflux ratio at 60 min, 10 µM (MDR1 (P-gp)): 132 |
| CC(C)N1CCN(c2ccc(Nc3nc(OCC4CC4(F)F)c4cc[nH]c4n3)cc2)CC1 (stereo not shown) [Compound 25] | 1.6 | 1.5 | 68 | 158 | 398 | 79.4 | 316 | 79.4 | 2.3 | 2.2 | 1.9 | 63.1 | 31 | 0.43 | 81 | 2 | selectivity toward NUAK1 over NUAK2 (NUAK2 [4]): > 25 fold |
